Reference: BigSolDB 2.1

Nc1ccc(Cc2ccc(N)c(Cl)c2)cc1Cl
solubility (mole fraction)
Conditions | 283.15 K | 288.15 K | 293.15 K | 298.15 K | 303.15 K | 308.15 K | 313.15 K | 318.15 K | 323.15 K | 328.15 K
in 1,4-dioxane | – | 0.206 | 0.217 | 0.236 | 0.258 | 0.285 | 0.32 | 0.354 | 0.394 | 0.443
in DMAc | 0.339 | 0.348 | 0.366 | 0.384 | 0.41 | 0.436 | 0.466 | 0.502 | 0.548 | 0.587
in DMF | 0.306 | 0.316 | 0.33 | 0.347 | 0.373 | 0.396 | 0.425 | 0.462 | 0.502 | 0.545
in acetonitrile | 0.0208 | 0.0225 | 0.0251 | 0.0283 | 0.0323 | 0.0367 | 0.0419 | 0.048 | 0.0574 | 0.0671
in ethanol | 0.0223 | 0.0242 | 0.0272 | 0.0314 | 0.0362 | 0.0424 | 0.049 | 0.057 | 0.0677 | 0.0803
in ethyl acetate | 0.115 | 0.123 | 0.134 | 0.146 | 0.162 | 0.177 | 0.196 | 0.223 | 0.254 | 0.287
in ethylene glycol | 0.0057 | 0.00624 | 0.00816 | 0.00975 | 0.0123 | 0.0148 | 0.0181 | 0.0208 | 0.0239 | 0.0281
in isobutanol | 0.0136 | 0.015 | 0.0172 | 0.0197 | 0.0227 | 0.0259 | 0.0301 | 0.0357 | 0.0426 | 0.0513
in isopropanol | 0.0189 | 0.0203 | 0.0226 | 0.0261 | 0.0294 | 0.0336 | 0.039 | 0.0447 | 0.0532 | 0.0623
in methanol | 0.0163 | 0.018 | 0.02 | 0.0231 | 0.026 | 0.0297 | 0.0347 | 0.0405 | 0.048 | 0.0565
in n-butanol | 0.0298 | 0.0323 | 0.037 | 0.0425 | 0.0484 | 0.0551 | 0.0632 | 0.0737 | 0.0873 | 0.105
in n-propanol | 0.0257 | 0.0278 | 0.0322 | 0.0369 | 0.0422 | 0.0484 | 0.0562 | 0.066 | 0.0783 | 0.094
in water | 0.00014 | 0.000172 | 0.000228 | 0.000286 | 0.000342 | 0.000409 | 0.000475 | 0.000559 | 0.000684 | 0.000842
